Reference: ChEMBL document CHEMBL1201862, “PubChem BioAssay data set” (2004)
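Values below derive from 48-hour exposures of cells grown in 96-well plates, with endpoints linearly interpolated between the two concentrations bracketing the appropriate inhibition level. GI50 = concentration required for 50% inhibition of growth.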 The source made the active and inactive calls. Rule as the data show it: active = GI50 up to about 1.1 µM and inactive = higher.

What was measured:
Test in all cases: inhibition of tumour cell growth, NCI panel, 48 h
U-251 = test system: U-251
LOX IMVI = test system: LOX IMVI
COLO 205 = test system: COLO 205
OVCAR-8 = test system: OVCAR-8
SK-MEL-2 = test system: SK-MEL-2
NCI-H23 = test system: NCI-H23
SK-OV-3 = test system: SK-OV-3
MDA-MB-231 = test system: MDA-MB-231
OVCAR-5 = test system: OVCAR-5
K562 = test system: K562
BT-549 = test system: BT-549
SR = test system: SR
HCT-15 = test system: HCT-15
M14 = test system: M14
NCI-H226 = test system: NCI-H226
RXF 393 = test system: RXF 393
KM12 = test system: KM12
CAKI-1 = test system: CAKI-1
RXF 631 = test system: RXF 631
EKVX = test system: EKVX
HT-29 = test system: HT-29
ACHN = test system: ACHN
UO-31 = test system: UO-31
SK-MEL-5 = test system: SK-MEL-5
MDA-N = test system: MDA-N
T47D = test system: T47D
CCRF-CEM = test system: CCRF-CEM
UACC-257 = test system: UACC-257
SF-268 = test system: SF-268
PC-3 = test system: PC-3
OVCAR-3 = test system: OVCAR-3
A549 = test system: A549
HCT-116 = test system: HCT-116
NCI-H522 = test system: NCI-H522
HL-60 = test system: HL-60
SN12C = test system: SN12C
MCF7 = test system: MCF7
NCI-H460 = test system: NCI-H460
DMS-273 = test system: DMS-273
NCI/ADR-RES = test system: NCI/ADR-RES
KM-20L2 = test system: KM-20L2
HCC 2998 = test system: HCC 2998
SNB-78 = test system: SNB-78
SW-620 = test system: SW-620
A498 = test system: A498
MOLT-4 = test system: MOLT-4
SNB-19 = test system: SNB-19
Hs-578T = test system: Hs-578T
IGROV-1 = test system: IGROV-1
DU-145 = test system: DU-145
Malme-3M = test system: Malme-3M
UACC-62 = test system: UACC-62
DMS-114 = test system: DMS-114
OVCAR-4 = test system: OVCAR-4
RPMI-8226 = test system: RPMI-8226
TK-10 = test system: TK-10
SF-295 = test system: SF-295
SK-MEL-28 = test system: SK-MEL-28
HOP-92 = test system: HOP-92
M19-MEL = test system: M19-MEL
LXFL 529 = test system: LXFL 529
SF-539 = test system: SF-539
MDA-MB-435 = test system: MDA-MB-435
786-0 = test system: 786-0
HOP-62 = test system: HOP-62

## NC(=O)c1cc(N2CC2)c([N+](=O)[O-])cc1[N+](=O)[O-] [TRETAZICAR]
U-251
  GI50: > 100 µM (inactive)
LOX IMVI
  GI50: > 100 µM (inactive)
COLO 205
  GI50: > 100 µM (inactive)
OVCAR-8
  GI50: > 100 µM (inactive)
SK-MEL-2
  GI50: > 20 µM (inactive)
NCI-H23
  GI50: > 100 µM (inactive)
SK-OV-3
  GI50: > 100 µM (inactive)
MDA-MB-231
  GI50: > 200 µM (inactive)
OVCAR-5
  GI50: > 100 µM (inactive)
K562
  GI50: > 100 µM (inactive)
BT-549
  GI50: > 100 µM (inactive)
SR
  GI50: > 200 µM (inactive)
HCT-15
  GI50: > 145 µM
M14
  GI50: > 100 µM (inactive)
NCI-H226
  GI50: > 100 µM (inactive)
RXF 393
  GI50: > 100 µM (inactive)
KM12
  GI50: > 100 µM (inactive)
CAKI-1
  GI50: > 100 µM (inactive)
RXF 631
  GI50: > 100 µM (inactive)
EKVX
  GI50: > 100 µM (inactive)
HT-29
  GI50: > 100 µM (inactive)
ACHN
  GI50: > 100 µM (inactive)
UO-31
  GI50: > 100 µM (inactive)
SK-MEL-5
  GI50: > 200 µM (inactive)
MDA-N
  GI50: > 200 µM (inactive)
T47D
  GI50: > 200 µM (inactive)
CCRF-CEM
  GI50: > 100 µM (inactive)
UACC-257
  GI50: > 100 µM (inactive)
SF-268
  GI50: > 100 µM (inactive)
PC-3
  GI50: > 200 µM (inactive)
OVCAR-3
  GI50: > 100 µM (inactive)
A549
  GI50: > 184 µM (inactive)
HCT-116
  GI50: > 100 µM (inactive)
NCI-H522
  GI50: > 100 µM (inactive)
HL-60
  GI50: > 100 µM (inactive)
SN12C
  GI50: > 100 µM (inactive)
MCF7
  GI50: > 63.2 µM (inactive)
NCI-H460
  GI50: 13 µM (inactive)
DMS-273
  GI50: > 100 µM (inactive)
NCI/ADR-RES
  GI50: > 200 µM (inactive)
KM-20L2
  GI50: > 100 µM (inactive)
HCC 2998
  GI50: > 100 µM (inactive)
SNB-78
  GI50: > 100 µM (inactive)
SW-620
  GI50: > 100 µM (inactive)
A498
  GI50: > 66.7 µM (inactive)
MOLT-4
  GI50: > 63.2 µM (inactive)
SNB-19
  GI50: > 100 µM (inactive)
Hs-578T
  GI50: > 200 µM (inactive)
IGROV-1
  GI50: > 100 µM (inactive)
DU-145
  GI50: > 200 µM (inactive)
Malme-3M
  GI50: > 129 µM (inactive)
UACC-62
  GI50: > 100 µM (inactive)
DMS-114
  GI50: > 100 µM (inactive)
OVCAR-4
  GI50: > 100 µM (inactive)
RPMI-8226
  GI50: > 100 µM (inactive)
TK-10
  GI50: > 200 µM (inactive)
SF-295
  GI50: > 100 µM (inactive)
SK-MEL-28
  GI50: > 200 µM (inactive)
HOP-92
  GI50: > 100 µM (inactive)
M19-MEL
  GI50: > 100 µM (inactive)
LXFL 529
  GI50: > 100 µM (inactive)
SF-539
  GI50: > 100 µM (inactive)
MDA-MB-435
  GI50: > 200 µM (inactive)
786-0
  GI50: > 100 µM (inactive)
HOP-62
  GI50: > 100 µM (inactive)
